Reference: patent US11166461B2, “Methods of controlling or preventing infestation of soybean plants by phytopathogenic microorganisms” (SYNGENTA PARTICIPATIONS AG, priority 2017, dated 2021)

Tests used:
Fusarium virguliforme [1] = experiment: Seed treatments on soybean cv. Toliman infected with Fusarium virguliforme (growth chamber pot test); assay type: in vivo; conditions: 29 DAS; for % Disease severity: SDS index normalized to 100 for untreated infected control; for % Infected plants: soybean cv. Toliman
Protocol: Effect of Different Seed Treatments on Soybean Cv. Toliman Infected with Fusarium virguliforme:
Fusarium virguliforme/Soybean
5×5 soybean seeds cv. Toliman were sown into plastic pots. A mixture of 50% vol. sand and 50% vol. sterilized field soil was used as substrate. A layer of F. virguliforme infected millet seeds was placed below the soybean seeds. The test was kept in a growth chamber at 25° C. with 14 h artificial light; plants were irrigated up to field capacity. For the last five cultivation days, plants were kept at 18° C. The number of infected plants was counted 29 Days After Sowing (DAS).
Disease assessment was done visually 29 DAS, by classifying the plants according to a disease severity scale for SDS modified from Scandiani et al. (2011)* and J. Bond using classes from 0 to 4. The number of plants in each class were assessed. This allows calculating an “SDS Index” by multiplying the number of plants in each class with the disease severity (0, 1, 2, 3 or 4) and adding the products for all classes. SDS Index=n1×0+n2×1+n3×2+n4×3+n5×4. The SDS index is normalized to give an index of 100 for the untreated, infected control (UTCINF) and by calculating the normalized index for all treatments relative to the UTCINF. Shoot dry weight and shoot size was determined 29 DAS. • *Scandiani M., Ruberti D., Giorda L., Pioli R., Luque A., Bottai B., Ivancovich J., Aoki T., & O'Donnell K.: Comparison of inoculation methods for characterizing relative aggressiveness of two soybean sudden-death syndrome pathogens, Fusarium virguliforme and F. tucumaniae. Tropical Plant Pathology, vol. 36, 3, 133-140, 2011 Effect of Different Seed Treatments in the Field Against Sudden Death Syndrome (SDS) Caused by Fusarium virguliforme

Fusarium virguliforme [2] = experiment: Seed treatments in the field against Sudden Death Syndrome (SDS) caused by Fusarium virguliforme, soybean field trial Clinton, Ill.; assay type: in vivo; conditions: seed treatment 0.15 mg ai/seed plus base treatment; for % efficacy based on disease incidence / % disease incidence: 107 days after planting; for % efficacy based on disease incidence: 100 − (100/(untreated/treated)); for % disease incidence: infected plants per plot; for Yield (bushel/acre) / % yield increase: 150 days after planting; for Yield (bushel/acre): full plot harvest; for % yield increase: versus untreated
Protocol: Disease assessment was done visually 29 DAS, by classifying the plants according to a disease severity scale for SDS modified from […] et al. (2011)* and J. Bond using classes from 0 to 4. The number of plants in each class were assessed. […] SDS Index=n1×0+n2×1+n3×2+n4×3+n5×4. The SDS index is normalized to give an index of 100 for the untreated, infected control ([…]) and by calculating the normalized index for all treatments relative to the […]. Shoot dry weight and shoot size was determined 29 […]., Ruberti D., Giorda L., Pioli R., Luque […]., Aoki T., & O'Donnell K.: Comparison of inoculation methods for characterizing relative aggressiveness of two soybean sudden-death syndrome pathogens, Fusarium virguliforme and F. tucumaniae. Tropical Plant Pathology, vol. 36, 3, 133-140, 2011 Effect of Different Seed Treatments in the Field Against Sudden Death Syndrome (SDS) Caused by Fusarium virguliforme A soybean field trial was carried out in Clinton, Ill., USA. This site had historically SDS occurrence reported. […] The disease occurred end of August and an assessment on disease incidence (counting of infected plants) was done Sep. 15, 2017. The yield of the grain data has been taken at the end of the season. [table] [table] [table]

Compound	Shoot dry weight (Fusarium virguliforme [1]; seed treatment 10 g ai/100 kg) [g]	Shoot length in mm (Fusarium virguliforme [1]; seed treatment 10 g ai/100 kg) [mm]	% Disease severity (Fusarium virguliforme [1]; seed treatment 10 g ai/100 kg) [%]	% Infected plants (Fusarium virguliforme [1]; seed treatment 10 g ai/100 kg) [%]	Shoot dry weight (Fusarium virguliforme [1]; seed treatment 20 g ai/100 kg) [g]	Shoot length in mm (Fusarium virguliforme [1]; seed treatment 20 g ai/100 kg) [mm]	% Disease severity (Fusarium virguliforme [1]; seed treatment 20 g ai/100 kg) [%]	% Infected plants (Fusarium virguliforme [1]; seed treatment 20 g ai/100 kg) [%]	yield increase over the untreated check (Fusarium virguliforme [2]) [bushels per acre]	% efficacy based on disease incidence (Fusarium virguliforme [2]) [%]	% disease incidence (Fusarium virguliforme [2]) [B %]	Yield (bushel/acre) (Fusarium virguliforme [2]) [A bushel/acre]	% yield increase (Fusarium virguliforme [2]) [%]	yield increase (in words) (Fusarium virguliforme [2])
O=C(NC1CCC1c1ccc(F)cc1Cl)c1ncccc1C(F)(F)F (stereo not shown) [Compound 4]	3.89	541	5	8	3.77	526	5	8						
O=C(NC1CCC1c1ccc(Cl)cc1Cl)c1cccnc1C(F)(F)F (stereo not shown) [Compound 1]	3.57	505	17	28	4.16	587	0	0	8.11	79.72	12.17	79.15	11.42	
O=C(NCCc1ncc(C(F)(F)F)cc1Cl)c1ccccc1C(F)(F)F [Fluopyram, reference compound]										58.33	25.00	68.38	−3.74	did not increase the yield
O=C(NC1CCC1c1ccc(F)cc1Cl)c1cccnc1C(F)(F)F (stereo not shown) [Compound 7]	4.09	565	1	4	4.01	530	0	0						
